From patent publication US20080261870A1, “Use of the Pro-Peptide Domain of Lysyl Oxidase as a Therapeutic Agent” (priority 2004, published 2008)

What was measured:
lysyl oxidase = biological target: T1, lysyl oxidase (Mus musculus, UniProt P28301); assay: Lysyl oxidase enzyme activity in PR4 cell culture media (tritiated tropoelastin substrate); assay type: biochemical
T1 construct: endogenous in cells; conditioned serum-free medium
T1 sequence (P28301 163-411): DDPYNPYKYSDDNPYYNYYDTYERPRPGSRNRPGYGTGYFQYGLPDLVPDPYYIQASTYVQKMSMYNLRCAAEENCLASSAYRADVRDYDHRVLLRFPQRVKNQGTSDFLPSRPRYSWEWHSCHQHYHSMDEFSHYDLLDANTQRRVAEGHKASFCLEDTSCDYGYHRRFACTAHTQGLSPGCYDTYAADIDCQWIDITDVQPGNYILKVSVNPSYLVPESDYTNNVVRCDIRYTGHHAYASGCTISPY
Procedure: (§1) If lysyl oxidase enzyme activity were required for the normal phenotype of PR4 cells, then BAPN would cause re-transformation. Thus, growth curves were generated for PR4 cells in the presence of 0 or 400 μM BAPN.
Lysyl oxidase enzyme activity. PR4 cells were plated in 100 mm cell culture plates and then grown and re-fed every two days as described above in the constant presence of 0, 200 and 400 μM BAPN for seven days until visually confluent. Cells were then re-fed with serum-free medium supplemented with 0.1% bovine serum albumin still in the constant presence or absence of BAPN. After 24 hours conditioned 0.3 ml aliquots of media samples were assayed in quadruplicate using a tritiated recombinant human tropoelastin as substrate as previously described (Bedell-Hogan et al., 1993). Incubations were performed at […] for 90 minutes (Hong et al., 1999) and data were expressed as total cpm released +/−SE per culture.

RS485 cells [1] = assay: Growth curves of RS485 cells (crystal violet staining); assay type: cell-based; conditions: for decrease of growth rate: linear regression of log of absorbance vs time
Text: Effect of suramin on RS485 cell phenotype. Suramin is a polysulfonated naphthylurea, initially used in the treatment of trypanosomiasis and onchocerciasis (Sullivan et al., 1997). Its anti-cancer activity was later identified, and suramin has been introduced into clinical trials for various forms of cancer (La Rocca et al., 1990(a); La Rocca et al., 1990(b); Song et al., 2001; Small et al., 2000; Garcia-Schurmann et al., 1999). Suramin interrupts autocrine growth factor pathways by inhibiting the binding of growth factors to their receptors (Sullivan et al., 1997; Zanghi et al., 2000; Fukumoto et al., 2000; Mietz et al., 1998; Coffey et al., 1987). Treatment of c-Ha-ras-transformed NIH 3T3 cells (RS485 cell line) with suramin leads to the induction of lysyl oxidase (Palamakumbura et al., 2003). Here we investigated the effects of suramin on the rate of growth and morphology of RS485 cells, as an initial measure of cell phenotype. Cells were plated in 6-well plates and cultured for 24 hours and then grown in the continuous presence of 0, 100, 125, or 150 μM suramin. As control, the growth of phenotypically normal NIH 3T3 cells in the absence of suramin was analyzed at the same time. Cell growth was determined by daily crystal violet staining of replicate wells. RS485 cells grew more rapidly than NIH 3T3 cells, as expected (Chang et al., 1982). […] The growth rate of RS485 cells treated with 150 μM suramin was similar to that of NIH 3T3 cells.
BAPN-mediated inhibition of lysyl oxidase enzyme activity fails to prevent phenotypic reversion induced by suramin. It has generally been assumed, although never directly tested, that lysyl oxidase dependent phenotypic reversion and tumor suppressor activity depends on its enzyme activity. To directly test the role of lysyl oxidase enzyme activity, we measured the effects of the lysyl oxidase inhibitor, BAPN (Tang et al., 1983), on the phenotypic changes in RS485 cells following treatment with 150 μM suramin. We have previously shown that suramin induces lysyl oxidase activity by about 2.5-fold (Palamakumbura et al., 2003). RS485 cell growth was assessed in the absence or presence of either 150 μM suramin or 400 μM BAPN, or a combination of both 150 μM suramin and 400 μM BAPN.
(§2) Growth curves. To study cell growth rates, cells were plated in 6-well plates at a density of 35,000 cells/well and were grown in complete medium containing 10% FBS, as described above. Additions of suramin or β-aminopropionitrile (BAPN), when appropriate, were initiated 24 hours after plating. Media were changed every three days in the continuous presence of suramin or BAPN, as indicated for each experimental design in the Results section. Cell density was determined in triplicate every day by crystal violet staining, as described (Kueng et al., 1989; Gillies et al., 1986). Cells were fixed with 10% formalin in PBS, washed with PBS, and then stained for 30 minutes with 0.1% crystal violet at room temperature with shaking. Unbound dye was then removed by washing with water until washes were colorless. Bound dye was then eluted with 10% acetic acid, and quantitated by measuring the absorbance at 590 nm. For quantitative analyses of growth rates, the logarithmic value of absorbance vs time was plotted±standard deviation and the rates were calculated by linear regression analyses. In addition, data were plotted as total absorbance +/−SE vs time. Experiments were performed three times each with consistent findings.

PR4 cells = assay: Growth curves and morphology of PR4 cells; assay type: cell-based; conditions: 400 μM BAPN
Procedure: as §1
as §2, with “Experiments were performed three times each with consistent findings.” left out

[2] = test system: ras-transformed fibroblasts; assay: Growth in soft agar of ras-transformed fibroblasts with ectopic lysyl oxidase expression, with BAPN; assay type: cell-based
Text: It has now been determined that the ability of lysyl oxidase to revert the phenotype of ras-transformed fibroblasts depends substantially on the pro-peptide domain and not on lysyl oxidase enzyme activity. Since diminished lysyl oxidase expression in some way contributes to the transformed phenotype, it had generally been assumed that lysyl oxidase enzyme activity is related to the tumor suppressor activity of lysyl oxidase, and, therefore, that diminished lysyl oxidase activity promotes the transformed phenotype. […] The lack of effect of BAPN on lysyl oxidase-dependent phenotype control is interesting. […] Given that BAPN is an irreversible inhibitor of lysyl oxidase (Tang et al., 1983), it follows that both extracellular and intracellular lysyl oxidase activity are susceptible to inhibition by BAPN.

lysyl oxidase activity = conditions: previously shown (Palamakumbura et al., 2003); cited from earlier work
lysyl oxidase mRNA = assay: Northern blot analysis of lysyl oxidase mRNA in transfected RS485 clones; assay type: cell-based, mouse; conditions: 150 μM suramin, 24 hours, normalized to 18S rRNA
Procedure: To confirm that lysyl oxidase expression is actually diminished by anti-sense lysyl oxidase transfection, the ability of 150 μM suramin to induce low steady state mRNA levels of lysyl oxidase in clones was assessed after 24 hours of treatment by Northern blot analysis with normalization to 18S rRNA signals. Suramin treatment led to an average 8-fold increase in lysyl oxidase mRNA levels in the six empty vector-transfected clones assayed, consistent with previous studies on non-transfected RS485 cells (Palamakumbura et al., 2003). In contrast, an average 1.8-fold increase in lysyl oxidase mRNA levels occurred in the nine anti-sense lysyl oxidase transfected clones, as shown by Northern blot analysis. Thus, the induction of steady state lysyl oxidase mRNA levels by suramin is inhibited by the anti-sense lysyl oxidase transfection, as expected.
RNA isolation and Northern blot analysis. Total RNA was isolated using the RNeasy —RNA isolation kit (Qiagen, Valencia, Calif.). Ten μg samples of denatured RNA were electrophoresed on a 1% agarose gel containing […]. Gels were transferred in 10×SSC by capillary blotting overnight to Gene Screen nylon membranes (Perkin Elmer Life Science, Boston, Mass.). […] Autoradiograms were assessed and normalized by densitometric scanning on a Versa Doc Model 3000 Gel Documentation System and Quantity One Software (BioRad, Hercules, Calif.). […]

[3] = test system: transfected RS485 cell clones; assay: Cell cycle analysis of anti-sense lysyl oxidase and empty vector transfected RS485 cell clones; assay type: cell-based; conditions: 150 μM suramin, 24 hours
Procedure: Inhibition of lysyl oxidase expression reduces phenotypic reversion induced by suramin. […] To determine that the suramin-induced phenotypic changes depend upon lysyl oxidase expression, we generated stable anti-sense lysyl oxidase transfected RS485 cell clones. Nine anti-sense lysyl oxidase transfected clones and six empty vector transfected clones were generated and grown in the presence and absence of 150 μM suramin, and after 24 hours, cells were fixed and subjected to cell cycle analysis. Non-transfected RS485 cells were analyzed as an additional control. Differences in the percentage of cells in G1 and S phase occurred as a function of suramin treatment.
(§3) Cell cycle analysis. RS485, NIH 3T3 and PR4 cells were plated on 100 mm plates and were grown until confluent with 0 or 150 μM suramin. Cells (1.5−2×10^6) were then trypsinized, washed with PBS and fixed by washing with ice-cold 70% ethanol. Cells were stained with propidium iodide (50 μg/ml) in PBS containing 2% FBS and was analyzed by flow cytometry using a FACScan flow cytometry with CELLQUEST acquisition and analysis software (Becton Dickinson Co, Bedford, Mass.).
Stable transfection of RS485 cells with an anti-sense lysyl oxidase expression vector. Cells were grown in 100 mm cell culture dishes. At approximately 70% confluence, they were transfected with the anti-sense murine lysyl oxidase expression vector pCLO3 (Giampuzzi et al., 2001) (20 μg DNA/plate) using the calcium phosphate precipitation method (Graham et al., 1973). As a control, RS485 cells were transfected with empty vector (pcDNA3). The transfected cells were selected using G418 (geneticin) at a final concentration of 400 μg/ml in the medium. Colonies were isolated from anti-sense lysyl oxidase and empty vector transfected RS485 cells using cloning cylinders (Southern et al., 1982) and cultured in 400 μg/ml G418. Cells were then plated onto 100 mm plates (250,000 cells/plate) without G418 and treated with 0 or 150 μM suramin. After 24 hours, cells were prepared for cell cycle and Northern analysis as described above.

RS485 cells [4] = assay: Cell cycle analysis (FACS, propidium iodide) of RS485 cells treated with suramin; assay type: cell-based; conditions: 2 days
Procedure: We next determined the effects of suramin on cell cycle progression of RS485 cell cultures. […] The proportions of cells in G1 and S phases in cultures treated with 150 μM suramin are nearly identical to untreated phenotypically normal NIH 3T3 cells (Table I). Thus, treatment with 150 μM suramin changed the morphology, cell cycle, and growth rate of RS485 cells resulting in a more normal phenotype.
as §3
RS485 cells were grown in the presence of 0, 100, or 150 μM suramin for 2 days. Alternatively, NIH 3T3 cells were grown in the absence of suramin, as control. Cells (1.5−2×10^6) were fixed with 70% ethanol and stained with propidium iodide and analyzed by flow cytometry. Data shown are the averages ±SD of experiments performed three times.

[5] = anti-sense lysyl oxidase transfected clones
[6] = empty vector transfected clones

N#CCCN [BAPN, β-aminopropionitrile]
lysyl oxidase enzyme activity in medium (lysyl oxidase; PR4 cultures in continuous presence of 200 μM BAPN): no lysyl oxidase enzyme activity was detected
lysyl oxidase enzyme activity in medium (lysyl oxidase; PR4 cultures in continuous presence of 400 μM BAPN): no lysyl oxidase enzyme activity was detected
effect on suramin-mediated inhibition of RS485 cell growth (RS485 cells [1]; 150 μM suramin and 400 μM BAPN combined): did not reverse or affect in any detectable way
effect on growth rate of RS485 cells (RS485 cells [1]; 400 μM BAPN): had no effect on the growth rate
effect on growth rate of PR4 cells (PR4 cells): did not affect the growth rate
effect on morphology of PR4 cells (PR4 cells): did not change the morphology
effect on ability of ectopic lysyl oxidase expression to prevent growth in soft agar [2]: failed to block

Cc1ccc(C(=O)Nc2ccc(S(=O)(=O)O)c3cc(S(=O)(=O)O)cc(S(=O)(=O)O)c23)cc1NC(=O)c1cccc(NC(=O)Nc2cccc(C(=O)Nc3cc(C(=O)Nc4ccc(S(=O)(=O)O)c5cc(S(=O)(=O)O)cc(S(=O)(=O)O)c45)ccc3C)c2)c1 [suramin]
induction of lysyl oxidase activity (lysyl oxidase activity): about 2.5 fold
average increase in lysyl oxidase mRNA levels (lysyl oxidase mRNA; nine anti-sense lysyl oxidase transfected clones): 1.8 fold
average increase in lysyl oxidase mRNA levels (lysyl oxidase mRNA; six empty vector-transfected clones): 8 fold
decrease in S phase [3, 5]: 6.9%
increase in percentage of cells in G1 phase [3, 5]: 10.6%
decrease of average number of cells in S phase [3, 6]: 13.5%
increase of average number of cells in G1 [3, 6]: 20.8%
decrease of growth rate (RS485 cells [1]; 100 μM suramin): 38%
decrease of growth rate (RS485 cells [1]; 125 μM suramin): 49%
morphology of RS485 cells (RS485 cells [1]; 150 μM suramin): flatter and contact inhibited
effect on growth rate of RS485 cells (RS485 cells [1]; 150 μM suramin (BAPN experiment)): decreased the growth rate
decrease of growth rate (RS485 cells [1]; 150 μM suramin): 56%
G1 % (RS485 cells [4]; 100 μM suramin): 59.4 ± 1.3%
G2, M % (RS485 cells [4]; 100 μM suramin): 19.1 ± 7.9%
S % (RS485 cells [4]; 100 μM suramin): 21.5 ± 2.4%
G1 % (RS485 cells [4]; 150 μM suramin): 67.4 ± 0.2%
G2, M % (RS485 cells [4]; 150 μM suramin): 13.6 ± 1.9%
S % (RS485 cells [4]; 150 μM suramin): 19.0 ± 1.7%
